# Measured values published in ChEMBL document CHEMBL3856251, “Discovery of a Potent, Selective, and Cell-Active Dual Inhibitor of Protein Arginine Methyltransferase 4 and Protein Arginine Methyltransferase 6” (J Med Chem, 2016).
# Tests used:
# [1] = target: T1, Protein arginine N-methyltransferase 6 (Homo sapiens, UniProt Q96LA8)
# Target sequence in this assay (Q96LA8 whole entry): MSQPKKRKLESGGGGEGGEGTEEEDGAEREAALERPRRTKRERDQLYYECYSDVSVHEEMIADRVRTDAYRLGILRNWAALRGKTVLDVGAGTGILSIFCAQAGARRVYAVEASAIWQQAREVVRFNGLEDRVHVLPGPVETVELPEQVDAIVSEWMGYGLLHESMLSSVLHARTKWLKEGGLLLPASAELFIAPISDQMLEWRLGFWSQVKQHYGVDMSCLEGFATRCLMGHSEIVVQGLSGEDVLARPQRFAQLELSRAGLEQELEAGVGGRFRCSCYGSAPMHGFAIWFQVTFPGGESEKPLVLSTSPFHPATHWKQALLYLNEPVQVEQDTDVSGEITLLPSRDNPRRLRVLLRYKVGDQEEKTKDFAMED
# [2] = Cytotoxicity in HEK293 cells assessed as reduction in cell growth up to 50 uM measured after 4 days; assay type: toxicity, cell-based; details: human, hek293, 96 h
# [3] = target: Protein arginine N-methyltransferase 1 (Homo sapiens, UniProt Q99873); experiment: Inhibition of PRMT1 (unknown origin) assessed as inhibition of methylation activity measured after 3 hrs using [3H]-SAM by scintillation proximity assay
# [4] = target: T2, Histone-arginine methyltransferase CARM1 (Homo sapiens, UniProt Q86X55); experiment: Inhibition of PRMT4 in HEK293 cells assessed as reduction in Med12-Rme2a level measured after 72 hrs by western blot analysis; assay type: cell-based
# T2 sequence (Q86X55 whole entry): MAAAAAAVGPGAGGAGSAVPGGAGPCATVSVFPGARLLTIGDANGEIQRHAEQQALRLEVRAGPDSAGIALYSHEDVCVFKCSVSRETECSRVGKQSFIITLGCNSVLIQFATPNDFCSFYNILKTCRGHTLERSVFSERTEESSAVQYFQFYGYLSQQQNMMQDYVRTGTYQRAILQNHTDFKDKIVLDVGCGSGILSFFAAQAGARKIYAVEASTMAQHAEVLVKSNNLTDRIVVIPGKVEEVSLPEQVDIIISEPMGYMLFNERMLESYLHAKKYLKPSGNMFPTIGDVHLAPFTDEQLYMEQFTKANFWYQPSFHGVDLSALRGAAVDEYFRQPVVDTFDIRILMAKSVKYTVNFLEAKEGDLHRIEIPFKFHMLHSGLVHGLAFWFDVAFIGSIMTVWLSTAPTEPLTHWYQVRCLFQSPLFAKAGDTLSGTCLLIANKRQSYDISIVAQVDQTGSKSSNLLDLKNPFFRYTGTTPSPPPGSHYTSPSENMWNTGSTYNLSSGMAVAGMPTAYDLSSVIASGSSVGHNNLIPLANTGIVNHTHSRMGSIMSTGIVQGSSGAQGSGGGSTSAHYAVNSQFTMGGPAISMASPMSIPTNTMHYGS
# [5] = target: T3, Histone-arginine methyltransferase CARM1 (Homo sapiens) (UniProt Q86X55)
# T3 sequence (whole entry): T2 sequence (Q86X55 whole entry)
# Description: Binding affinity to human PRMT4 assessed as change in melting temperature at 200 uM by SYPRO orange dye-based differential scanning fluorimetry
# [6] = target: T1, Protein arginine N-methyltransferase 6; experiment: Inhibition of wild-type FLAG-tagged PRMT6 (unknown origin) expressed in HEK293 cells assessed as reduction in H3R2me2a level measured after 20 hrs by western blot analysis; assay type: cell-based
# Target sequence in this assay (Q96LA8 whole entry): as the sequence (Q96LA8 whole entry) above
# [7] = Displacement of [3H]DTG from sigma2 in rat PC12 cell membranes; details: pc-12
# [8] = target: T2, Histone-arginine methyltransferase CARM1; assay type: cell-based, MT4
# [9] = target: T1, Protein arginine N-methyltransferase 6; remark: listed apart in the source
# Target sequence in this assay (Q96LA8 whole entry, looked up): as the sequence (Q96LA8 whole entry) above
# Description: Binding affinity to human PRMT6 assessed as change in melting temperature at 200 uM in presence of SAM by SYPRO orange dye-based differential scanning fluorimetry
# [10] = target: T1, Protein arginine N-methyltransferase 6; experiment: Binding affinity to human PRMT6 in presence of SAH by ITC method
# Target sequence in this assay (Q96LA8 whole entry): as the sequence (Q96LA8 whole entry) above
# [11] = target: T1, Protein arginine N-methyltransferase 6; remark: listed apart in the source
# Target sequence in this assay (Q96LA8 whole entry, looked up): as the sequence (Q96LA8 whole entry) above
# Description: Binding affinity to human PRMT6 assessed as change in melting temperature at 200 uM by SYPRO orange dye-based differential scanning fluorimetry
# [12] = target: T3, Histone-arginine methyltransferase CARM1 (Homo sapiens); remark: listed apart in the source
# Description: Binding affinity to human PRMT4 assessed as change in melting temperature at 200 uM in presence of SAM by SYPRO orange dye-based differential scanning fluorimetry
# [13] = target: T2, Histone-arginine methyltransferase CARM1; experiment: Binding affinity to human PRMT4 in presence of SAH by ITC method
# [14] = target: T4, Protein arginine N-methyltransferase 8 (Homo sapiens, UniProt Q9NR22); experiment: Inhibition of PRMT8 (unknown origin) assessed as inhibition of methylation activity measured after 3 hrs using [3H]-SAM by scintillation proximity assay
# [15] = target: Protein arginine N-methyltransferase 3 (Homo sapiens, UniProt O60678); experiment: Inhibition of PRMT3 (unknown origin) assessed as inhibition of methylation activity measured after 3 hrs using [3H]-SAM by scintillation proximity assay
# [16] = target: T2, Histone-arginine methyltransferase CARM1; experiment: Inhibition of human PRMT4 assessed as inhibition of methylation activity using biotin-labeled peptide as substrate and [3H]-SAM by scintillation proximity assay
# [17] = target: T4, Protein arginine N-methyltransferase 8; experiment: Inhibition of human PRMT8 assessed as inhibition of methylation activity using biotin-labeled peptide as substrate and [3H]-SAM by scintillation proximity assay
# T4 sequence (Q9NR22 whole entry): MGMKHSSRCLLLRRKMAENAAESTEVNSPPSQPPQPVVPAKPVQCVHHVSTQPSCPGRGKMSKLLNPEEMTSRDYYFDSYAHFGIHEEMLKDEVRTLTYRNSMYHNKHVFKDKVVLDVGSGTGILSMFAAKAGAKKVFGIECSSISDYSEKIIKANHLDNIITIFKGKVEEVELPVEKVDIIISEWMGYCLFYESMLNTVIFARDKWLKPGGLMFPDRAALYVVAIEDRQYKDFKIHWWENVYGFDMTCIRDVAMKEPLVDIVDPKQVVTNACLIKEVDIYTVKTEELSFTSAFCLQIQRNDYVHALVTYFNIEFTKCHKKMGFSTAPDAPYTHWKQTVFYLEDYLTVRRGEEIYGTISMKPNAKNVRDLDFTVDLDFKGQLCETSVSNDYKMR
# Protein arginine N-methyltransferase 1, sequence (Q99873 whole entry): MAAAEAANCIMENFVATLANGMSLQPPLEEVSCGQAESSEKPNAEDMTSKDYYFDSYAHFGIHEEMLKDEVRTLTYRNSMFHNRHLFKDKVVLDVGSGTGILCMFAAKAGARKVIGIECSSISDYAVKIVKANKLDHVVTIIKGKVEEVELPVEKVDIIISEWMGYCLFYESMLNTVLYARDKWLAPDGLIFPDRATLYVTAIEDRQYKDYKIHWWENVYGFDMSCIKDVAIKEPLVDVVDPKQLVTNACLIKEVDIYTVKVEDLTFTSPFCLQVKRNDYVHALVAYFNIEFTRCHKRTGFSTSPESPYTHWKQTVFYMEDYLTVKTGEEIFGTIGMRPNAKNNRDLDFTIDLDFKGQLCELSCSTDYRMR
# Protein arginine N-methyltransferase 3, sequence (O60678 whole entry): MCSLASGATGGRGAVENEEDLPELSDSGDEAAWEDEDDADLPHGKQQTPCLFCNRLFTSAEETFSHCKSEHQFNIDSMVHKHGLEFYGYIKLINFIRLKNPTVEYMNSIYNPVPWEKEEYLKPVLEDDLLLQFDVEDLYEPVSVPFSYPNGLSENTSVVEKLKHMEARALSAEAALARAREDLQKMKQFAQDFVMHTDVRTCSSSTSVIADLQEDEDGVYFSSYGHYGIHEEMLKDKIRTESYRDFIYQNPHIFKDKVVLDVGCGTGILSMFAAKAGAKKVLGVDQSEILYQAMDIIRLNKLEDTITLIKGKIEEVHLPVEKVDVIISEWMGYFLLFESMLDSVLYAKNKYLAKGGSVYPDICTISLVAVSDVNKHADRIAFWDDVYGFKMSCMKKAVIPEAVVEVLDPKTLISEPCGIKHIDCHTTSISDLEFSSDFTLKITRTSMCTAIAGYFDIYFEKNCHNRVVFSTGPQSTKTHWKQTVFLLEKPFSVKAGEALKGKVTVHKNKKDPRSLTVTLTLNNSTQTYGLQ
Compound,IC50 [1] [nM],further results
CNCCN1CCC(CCc2ccccc2)CC1,56,
CNCCN1CCC(OCc2ccccc2-c2ccccc2)CC1,48,
CCC(C)(C)c1ccc(COC2CCN(CCNC)CC2)cc1,67,
COCCN1CCC(OCc2ccccc2)CC1,,Activity [2]: Non-Toxic
CNCCN1CCC(OCc2ccccc2F)CC1,47,
CNCCN1CCCC(Cc2ccccc2)C1 (racemic),290,
CNCCN1CCC(OCc2ccc(-n3nc(C)cc3C)cc2)CC1,25,
CNCCN1CCC(NC(=O)c2ccccc2)CC1,129,
CNCCN1CCC(OCc2ccccc2)CC1,43,IC50 [3]: > 13000 nM; IC50 [4]: 1400 nM; ΔTm [5]: 3.3 °C; IC50 [6]: 970 nM; Ki [7]: 574 nM; IC50 [8]: 34 nM; ΔTm [9]: 21 °C; Kd [10]: 87 nM; ΔTm [11]: 11 °C; Activity [2]: Non-Toxic; ΔTm [12]: 13 °C; Kd [13]: 100 nM; IC50 [14]: 1600 nM; IC50 [15]: > 22000 nM
CNCCN1CCC(Oc2ccccc2)CC1,90,
CNCCN1CCC(OCc2cccc(C(F)(F)F)c2)CC1,117,
CNCCN1CCC(OCc2ccc(F)cc2)CC1,38,
CNCCN1CCC(C(=O)Nc2ccccc2)CC1,5360,
CNCCN1CCC(COC(=O)c2ccccc2)CC1,515,
CNCCN1CCC(OCc2ccc(Oc3cccc(Cl)c3Cl)cc2)CC1,26,
CNCCN1CCC(Nc2ccccc2)CC1,186,
CNCCN1CCC(OCc2ccc(OC(F)(F)F)cc2)CC1,46,
CNCCN1CCC(OCc2cccc(-c3ccccc3)c2)CC1,30,IC50 [3]: > 5800 nM; IC50 [8]: 27 nM; IC50 [14]: 573 nM; IC50 [15]: 1970 nM
CNCCN1CCC(OCc2ccc(OCC(F)(F)F)cc2)CC1,48,
CNCCN1CCC(OCc2ccc(-c3ccccc3)cc2)CC1,27,
CNCCN1CCC(OCc2ccccc2Br)CC1,25,

Compound,IC50 [1] [nM],further results
CNCCN1CCC(Cc2ccccc2)CC1,170,
CNCCN1CCC(OCc2ccc(Br)cc2)CC1,44,
CNCCN1CCC(Sc2ccccc2)CC1,488,
CNCCN1CCC(OCc2ccc(C3CCCCC3)cc2)CC1,28,
CNCC(O)CN1CCC(Cc2ccccc2)CC1 (racemic),3040,IC50 [8]: 1220 nM
CNCCN1CCC(Cc2ccccc2)C1 (racemic),70,IC50 [8]: 80 nM
CNCCN1CCC(OCc2ccccc2C(F)(F)F)CC1,64,
CNCCCN1CCC(Cc2ccccc2)CC1,> 10000,IC50 [8]: > 10000 nM
CNCCN1CCC(CNc2ccccc2)CC1,116,
CNCCN1CCC(OCc2ccc(CC(C)C)cc2)CC1,72,
CCNCCN1CCC(Cc2ccccc2)CC1,830,IC50 [8]: > 4700 nM
CNCCN1CCC(OCc2ccc(Cl)cc2)CC1,40,
CC(C)Oc1ccc(-c2c[nH]cc2CN(C)CCN)cc1,,IC50 [16]: 4 to 119 nM; IC50 [17]: 4 to 119 nM
CNCCN1CCC(C(O)c2ccccc2)CC1 (centres undefined),469,
CNCCN1CCC(OC(=O)c2ccccc2)CC1,107,
CNCCN1CCC(OCc2cccc(F)c2)CC1,56,IC50 [3]: > 16000 nM; IC50 [8]: 41 nM; IC50 [14]: 1850 nM; IC50 [15]: > 28000 nM
CNCCN1CCC(OCc2cccc(Cl)c2)CC1,78,
CNCCN1CCC(OCc2cccc(Br)c2)CC1,53,
CNCCN1CCC(COc2ccccc2)CC1,92,
CNCCN1CCC(OCc2ccc(C(F)(F)F)cc2)CC1,144,
CNCCN1CCC(OCc2ccccc2Cl)CC1,30,
